Patent US20140086961A1, “USE OF CYCLODEXTRINS IN DIETS, WATER OR VACCINE ADJUVANTS TO BOOST THE IMMUNE SYSTEM OF FISH” (priority 2011, published 2014)

Legend:
zebrafish larvae [1] = assay: Larval viability during cyclodextrin treatment after first feeding; format: in vivo; conditions: zebrafish larvae bathed with 500 μg/mL, recorded 10 days post first feeding
Procedure: The larval viability during cyclodextrin treatment was explored. The survival during treatment was compared with normal larval growth condition after first feeding (day 5 post hatch). 6 independent batches by reproduction (84 embryos by batch) of zebrafish larvae were bathed with 0 (“Control”; normal larval growth condition) or 500 μg/mL of beta cyclodextrin (“β CyD”), alpha cyclodextrin (“α CyD”) or both (“β+α CyD”; 50/50% of each). Larval survival was recorded 10 days post first feeding ([…]) and was increased with all cyclodextrin treatments (FIG. 7).

trout macrophages = assay: QBlue Cell Viability Assay (resazurin reduction) in trout macrophages; format: cell-based, rainbow trout; conditions: same cells as FIG. 1, saponin positive control
Source text: High fluorescence indicates no loss in cell viability. Cells were the same ones used in FIG. 1. Saponin is a positive control since it kills cells.
A primary trout macrophage culture system was used to investigate how pathogens are recognized by the innate immune system in fish (MacKenzie et al., Developmental and Comparative Immunology 27:393-400 (2003); Iliev et al., Molecular Immunology 42:1215-1223 (2005); Iliev et al. FEBS Letters 579 (29):6519-6528 (2005)). In this system, macrophages can be stimulated by various compounds and the expression of immune genes such as interleukin 1 B (IL-1B) or tissue necrosis factor (TNF) can be assayed as a measure of the degree of inflammatory stimulation and, thus, activation of the innate immune system. The effect of nanoparticles on the immune system of trout as an indication of the possible harmful effects of these compounds on aquatic organisms was studied. This involved exposing the cultured trout macrophages to nanoparticles and looking for effects on IL-1B and interferon alpha (IFNa) gene expression. Bacterial lipopolysaccharide (LPS) was used as a positive stimulatory control. […] RNA was extracted from cells and analyzed by QPCR for IL-1B expression. […] The effect of beta cyclodextrin on any cell viability was determined using the QBlue Cell Viability Assay Kit (BioChain) and saponin as a positive control for cell death.

[2] = tested on: IL-1B gene expression in trout macrophages; assay: IL-1B gene expression in primary trout macrophage culture (QPCR); format: cell-based, rainbow trout; conditions: trout macrophages stimulated 24 hours, LPS positive control
Procedure: LPS is a positive stimulatory control. Macrophages were isolated from head kidneys of rainbow trout, plated and then stimulated with the preparations for 24 hours. RNA was extracted from cells and analyzed by QPCR for IL-1B expression. Data are means for 3 independent trials.
Standard SYBR-green based methodology was used for anti-viral and pro-inflammatory gene expression in mucosal immune system (intestine/gills/skin/spleen) to evaluate effective dose and identify the effects of β-cyclodextrins on tissue activation profiles. Briefly, 2 μg of total RNA was used for cDNA synthesis (SuperScript® III, Invitrogen) and subsequently diluted with nuclease-free water to 1 ng/μL cDNA. Gene-specific high-melting temperature primers for genes of interest were designed using NCBI/Primer-BLAST suite. […] Quantitative expression data between different times were examined by one-way ANOVA using SPSS 17 statistical software and the differences were considered significant at p<0.05.
A primary trout macrophage culture system was used to investigate how pathogens are recognized by the innate immune system in fish (MacKenzie et al., Developmental and Comparative Immunology 27:393-400 (2003); Iliev et al., Molecular Immunology 42:1215-1223 (2005); Iliev et al. FEBS Letters 579 (29):6519-6528 (2005)). […] RNA was extracted from cells and analyzed by QPCR for IL-1B expression. […]

[3] = tested on: TNF, Mx, IL-6, IL-1B, TLR, IFN, CD18, PU1 gene expression in trout macrophages; assay: RT-PCR of immune genes in trout macrophages stimulated 24 hours (FIG. 3); format: cell-based, rainbow trout
Procedure: Cells were stimulated for 24 hours and RNA extracted and RT-PCR conducted with TNF (tissue necrosis factor), Mx protein, IL-6 (interleukin 6), IL-1B (interleukin 1B), TLR (toll-like receptor), IFN (interferon), CD18 (cluster of differentiation 18), and PU1 (transcription factor PU1). 18S is a RNA loading control. Molecular weight standard in first lane.
The effects of cyclodextrin on the expression of several other genes such as TNF and IL-6 that are also pro-inflammatory were studied (FIG. 3). […] Cells were stimulated for 24 hours and RNA extracted and RT-PCR conducted with TNF (tissue necrosis factor), Mx protein, IL-6 (interleukin 6), IL-1B (interleukin 1B), TLR (toll-like receptor), IFN (interferon), CD18 (cluster of differentiation 18), and PU1 (transcription factor PU1). 18S is a RNA loading control. Molecular weight standard is in the first lane.

zebrafish larvae [4] = assay: LPS challenge of zebrafish larvae bathed with cyclodextrin; format: in vivo; conditions: zebrafish larvae 2 dpf, bath 67.5-500 μg/mL, then LPS 150 μg/mL Pseudomonas aeruginosa, mortality over 36 hours
Procedure: (§1) FIGS. 5A and 5B show replicates of the effects of α-cyclodextrin at various concentrations on LPS challenge. Zebrafish larvae, 2 days post-fertilization, were bathed with 0, 67.5, 125, 250 or 500 μg/mL of alpha cyclodextrin. Zebrafish larvae were then bathed with a lethal concentration (100% mortality) of LPS (150 μg/mL—Pseudomonas aeruginosa) and assessed for mortality over 36 hours. FIGS. 5A and 5B show the cumulative mortality after challenge of zebrafish larvae treated with α-cyclodextrin
as §1, with “6A” for “5A”, “6B” for “5B”, “β-cyclodextrin” for “α-cyclodextrin”, “challenge performed in replicate.” for “challenge.”, “beta” for “alpha”
To test this, zebrafish larvae, 2 days post fertilization (dpf), were bathed with 0, 67.5, 125, 250 or 500 μg/mL of beta or alpha cyclodextrin. Zebrafish larvae were then bathed with a lethal concentration (i.e., 100% mortality) of bacterial lipopolysaccharide (LPS) (150 μg/mL Pseudomonas aeurginosa). […]

[5] = tested on: IL-1B and IL-6 gene expression in rainbow trout macrophages; assay: RT-PCR of IL-1B and IL-6 in trout macrophages with different cyclodextrins (FIG. 4); format: cell-based; conditions: trout macrophages stimulated 30 minutes to 24 hours
Procedure: Trout macrophages were stimulated for 30 minutes to 24 hours with heptakis (2,6-di-O-methyl)-β-cyclodextrin (Heptakis); methyl-β-cyclodextrin (Methyl β); beta cyclodextrin (β CyD); 2-hydroxypropyl-β-cyclodextrin (Hydroxy β); 2-hydroxypropyl-α-cyclodextrin (Hydroxy α); gamma cyclodextrin (γ CyD). RNA was extracted and RT-PCR conducted with IL-1B and IL-6. 18s was a RNA loading control. Molecular weight standard in first lane
Since there are various forms of cyclodextrins with different side groups that appear to have different effects in mammalian macrophages, the effects of different cyclodextrins on gene expression in the trout macrophage cell cultures were tested. Trout macrophages were stimulated for 30 minutes to 24 hours with heptakis (2,6-di-O-methyl)-β-cyclodextrin (Heptakis); methyl-β-cyclodextrin (Methyl β); beta cyclodextrin (β CyD); 2-hydroxypropyl-β-cyclodextrin (Hydroxy β; 2-hydroxypropyl-α-cyclodextrin (Hydroxy α); gamma cyclodextrin (γ CyD). RNA was extracted and RT-PCR conducted with IL-1B and IL-6.
From these cell experiments, it was shown that cyclodextrin could up-regulate the innate immune system and could possibly be used as an immune agent to protect fish against pathogen challenges.

| Compound | larval survival versus control (zebrafish larvae [1]) | cell viability (trout macrophages) | IL-1B expression [2] | most highly stimulated gene [3] | protection of larvae against lethal LPS challenge (zebrafish larvae [4]) | IL-1B expression [5] | IL-6 expression [5] |
| --- | --- | --- | --- | --- | --- | --- | --- |
| OC[C@H]1O[C@@H]2O[C@H]3[C@H](O)[C@@H](O)[C@@H](O[C@H]4[C@H](O)[C@@H](O)[C@@H](O[C@H]5[C@H](O)[C@@H](O)[C@@H](O[C@H]6[C@H](O)[C@@H](O)[C@@H](O[C@H]7[C@H](O)[C@@H](O)[C@@H](O[C@H]8[C@H](O)[C@@H](O)[C@@H](O[C@H]1[C@H](O)[C@H]2O)O[C@@H]8CO)O[C@@H]7CO)O[C@@H]6CO)O[C@@H]5CO)O[C@@H]4CO)O[C@@H]3CO [beta cyclodextrin] | increased | No effect on viability | potent stimulator of inflammatory gene expression | IL-1B | protected the larvae against the LPS | – | – |
| OC[C@H]1O[C@@H]2O[C@H]3[C@H](O)[C@@H](O)[C@@H](O[C@H]4[C@H](O)[C@@H](O)[C@@H](O[C@H]5[C@H](O)[C@@H](O)[C@@H](O[C@H]6[C@H](O)[C@@H](O)[C@@H](O[C@H]7[C@H](O)[C@@H](O)[C@@H](O[C@H]8[C@H](O)[C@@H](O)[C@@H](O[C@H]9[C@H](O)[C@@H](O)[C@@H](O[C@H]1[C@H](O)[C@H]2O)O[C@@H]9CO)O[C@@H]8CO)O[C@@H]7CO)O[C@@H]6CO)O[C@@H]5CO)O[C@@H]4CO)O[C@@H]3CO [gamma cyclodextrin] | – | – | – | – | – | most effective form | – |
| COC[C@H]1O[C@@H]2O[C@H]3[C@H](O)[C@@H](OC)[C@@H](O[C@H]4[C@H](O)[C@@H](OC)[C@@H](O[C@H]5[C@H](O)[C@@H](OC)[C@@H](O[C@H]6[C@H](O)[C@@H](OC)[C@@H](O[C@H]7[C@H](O)[C@@H](OC)[C@@H](O[C@H]8[C@H](O)[C@@H](OC)[C@@H](O[C@H]1[C@H](O)[C@H]2OC)O[C@@H]8COC)O[C@@H]7COC)O[C@@H]6COC)O[C@@H]5COC)O[C@@H]4COC)O[C@@H]3COC [Heptakis, heptakis (2,6-di-O-methyl)-β-cyclodextrin] | – | – | – | – | – | stimulated | stimulated |
| OC[C@H]1O[C@@H]2O[C@H]3[C@H](O)[C@@H](O)[C@@H](O[C@H]4[C@H](O)[C@@H](O)[C@@H](O[C@H]5[C@H](O)[C@@H](O)[C@@H](O[C@H]6[C@H](O)[C@@H](O)[C@@H](O[C@H]7[C@H](O)[C@@H](O)[C@@H](O[C@H]1[C@H](O)[C@H]2O)O[C@@H]7CO)O[C@@H]6CO)O[C@@H]5CO)O[C@@H]4CO)O[C@@H]3CO [alpha cyclodextrin] | increased | – | – | – | protected the larvae against the LPS | – | – |
